The source of these data is patent US6280715A, “Cosmetic composition useful notably for the skin whitening and melanogenesis inhibiting agent containing such a cosmetic composition” (Exsymol S.A.M., priority 1997, dated 2001).

Test [1] has as its system tyrosinase. The test can be described thus: in vitro inhibition of melanin formation from L-DOPA by tyrosinase. The format is biochemical. As to conditions: product diluted at 1.10^-3 mole.l^-1 (2 ml in mixture), pH 6.8, 4 hours at 37° C., optical density at 400 nm. As for the experimental part:
The reference used is the ascorbic acid in solution at 0.3.10^-3 mole l^-1.
2 ml of a L-DOPA solution, 1.25 ml of tyrosinase (2500 units/ml), 2 ml of product (Ia) diluted at 1.10^-3 mole.l^-1 are mixed together, and the mixture is completed with 20 ml of phosphate buffer (NaH2 PO4 0.1 mole l^-1 +Na2 HPO4 0.1 mole.l^-1, pH=6.8). The mixture is stirred for 4 hours at 37° C., then allowed to cool at room temperature for one night, shielded from light.
1 ml of concentrated hydrochloric acid is added and the mixture is centrifuged at 4000 rpm for 5 min. The pellet is washed with 10 ml of distilled water then centrifuged a second time. A reflux is made on the pellet with concentrated acid HCL 6N for 48 hours. The dried pellet is dissolved in 10 ml of toluene, exposed to ultrasounds for 2 min, put 2 hours at 37° C. then exposed to ultrasounds again for 5 min. The optical density is measured at 400 nm.

In test [2] the test system is S91 melanoma cells. Put plainly: melanin content of UV-irradiated S91 melanoma cell cultures. Conditions: Mus musculus, S91, light or radiation study. The format is cell-based. The protocol: The inhibiting activity on melanin, of the 1-amino-ethylphosphinic acid (Ia) is studied on S91 melanoma cells cultures.
The model of study was finalized by Gilchrest (1987).
The cultured cells are purchased from a Cloudman melanom.
As ordinary melanocytes, they respond to UV stimuli by an increase of melanogenesis.
The melanogenesis evaluation is made through the melanin content and the activity of enzymes involved in this metabolism: tyrosinase and dopa-tautomerase.
S91 cells are plated in P60 dishes at a density of […] per dish and maintained in Dubelcco's modified Eagle's medium and provided with 10% of calf serum. When the cells have reached about 50% of confluence, they are exposed to a UV irradiation of 10 mJ/cm^2 at 285±5 nm. During irradiation, the medium is replaced with a salin phosphate solution (PBS) to eliminate the forming of toxical derivatives. Immediately after irradiation, the PBS is replaced with fresh medium/7% of calf serum with or without the active agent. After a 16 hours incubation, the medium is replaced with ordinary medium with or without the active agent. […]
The melanin content is then determined: melanocytes are trypsinized, twice washed with PBS and dissolved in 0.8 ml of NaOH 1N, when strongly vortexed for 10-15 min and heated at 60-80° C. The melanin concentration is determined based on the absorbance at 475 nm.

For `CC(N)[PH](=O)O` (stereo not shown) [(Ia), 1-amino-ethylphosphinic acid], the “percentage of inhibition of melanin” value in test [1] was found to be 46%. The inhibition at 500 µM in test [2] (read-out: decrease of melanin rate in the cells) was 47.2%. Take `CC(C)CC(N)[PH](=O)O` (stereo not shown) [(Ib), 1-amino-3-methylbutylphosphinic acid]: in test [1], the “percentage of inhibition of melanin” value is 44%. For `O=c1cc(CO)occ1O` [kojic acid, reference compound], in test [2] (kojic acid at 3.3.10^-3 mole.l^-1, UV irradiation 10 mJ/cm^2, absorbance at 475 nm, read-out: decrease of melanin content in the cells), the inhibition at 3300 µM was determined as 45.2%.
